Assay results as given in ChEMBL document CHEMBL3044672, “N9- and N7-(Chloromethyl Phenymethyl)Chloropurine Derivatives from , '-Dichloroxylenes: Synthesis and Anticancer Activity” (2005).

What was measured:
Assay type in all cases: functional
U-251 = experiment: Cytotoxicity against Homo sapiens (human) U251 cells after 48 hr by sulforhodamine B assay; details: U-251, 48 h
Hs-578T = experiment: Cytotoxicity against Homo sapiens (human) Hs 578T cells after 48 hr by sulforhodamine B assay
RPMI-8226 = experiment: Cytotoxicity against Homo sapiens (human) RPMI8226 cells after 48 hr by sulforhodamine B assay; details: RPMI-8226, 48 h
M14 = experiment: Cytotoxicity against Homo sapiens (human) M14 cells after 48 hr by sulforhodamine B assay; details: M14, 48 h
SN12C = experiment: Cytotoxicity against Homo sapiens (human) SN12C cells after 48 hr by sulforhodamine B assay
T47D = experiment: Cytotoxicity against Homo sapiens (human) T47D cells after 48 hr by sulforhodamine B assay
HT-29 = experiment: Cytotoxicity against Homo sapiens (human) HT-29 cells after 48 hr by sulforhodamine B assay; details: HT-29, 48 h
A498 = experiment: Cytotoxicity against Homo sapiens (human) A498 cells after 48 hr by sulforhodamine B assay; details: A498, 48 h
A549 = experiment: Cytotoxicity against Homo sapiens (human) A549 cells after 48 hr by sulforhodamine B assay; details: A549, 48 h
PC-3 = experiment: Cytotoxicity against Homo sapiens (human) PC3 cells after 48 hr by sulforhodamine B assay; details: PC-3, 48 h
OVCAR-4 = experiment: Cytotoxicity against Homo sapiens (human) OVCAR4 cells after 48 hr by sulforhodamine B assay; details: OVCAR-4, 48 h
NCI-H460 [1] = experiment: Cytotoxicity against Homo sapiens (human) NCI-H460 cells after 48 hr by sulforhodamine B assay; details: NCI-H460, 48 h
MCF7 [2] = experiment: Cytotoxicity against Homo sapiens (human) MCF7 cells after 48 hr by sulforhodamine B assay; details: MCF7, 48 h
SK-MEL-5 = experiment: Cytotoxicity against Homo sapiens (human) SK-MEL-5 cells after 48 hr by sulforhodamine B assay; details: SK-MEL-5, 48 h
UACC-257 = experiment: Cytotoxicity against Homo sapiens (human) UACC257 cells after 48 hr by sulforhodamine B assay; details: UACC-257, 48 h
UO-31 = experiment: Cytotoxicity against Homo sapiens (human) UO31 cells after 48 hr by sulforhodamine B assay; details: UO-31, 48 h
MDA-MB-435 = experiment: Cytotoxicity against Homo sapiens (human) MDA-MB-435 cells after 48 hr by sulforhodamine B assay; details: MDA-MB-435, 48 h
MCF7 [3] = experiment: Cytotoxicity against Homo sapiens (human) MCF7 cells assessed as cell growth at 10^-4 M after 48 hr by Alamar blue assay; details: MCF7, 48 h, read-out: Activity
KM12 = experiment: Cytotoxicity against Homo sapiens (human) KM12 cells after 48 hr by sulforhodamine B assay; details: KM12, 48 h
HCC 2998 = experiment: Cytotoxicity against Homo sapiens (human) HCC2998 cells after 48 hr by sulforhodamine B assay; details: HCC 2998, 48 h
LOX IMVI = experiment: Cytotoxicity against Homo sapiens (human) LOXIMVI cells after 48 hr by sulforhodamine B assay
HOP-92 = experiment: Cytotoxicity against Homo sapiens (human) HOP92 cells after 48 hr by sulforhodamine B assay; details: HOP-92, 48 h
K562 = experiment: Cytotoxicity against Homo sapiens (human) K562 cells after 48 hr by sulforhodamine B assay; details: K562, 48 h
IGROV-1 = experiment: Cytotoxicity against Homo sapiens (human) IGROV1 cells after 48 hr by sulforhodamine B assay; details: IGROV-1, 48 h
TK-10 = experiment: Cytotoxicity against Homo sapiens (human) TK10 cells after 48 hr by sulforhodamine B assay; details: TK-10, 48 h
HCT-15 = experiment: Cytotoxicity against Homo sapiens (human) HCT15 cells after 48 hr by sulforhodamine B assay; details: HCT-15, 48 h
NCI-H226 = experiment: Cytotoxicity against Homo sapiens (human) NCI-H226 cells after 48 hr by sulforhodamine B assay; details: NCI-H226, 48 h
DU-145 = experiment: Cytotoxicity against Homo sapiens (human) DU145 cells after 48 hr by sulforhodamine B assay; details: DU-145, 48 h
SK-MEL-28 = experiment: Cytotoxicity against Homo sapiens (human) SK-MEL-28 cells after 48 hr by sulforhodamine B assay; details: SK-MEL-28, 48 h
NCI-H460 [4] = experiment: Cytotoxicity against Homo sapiens (human) NCI-H460 cells assessed as cell growth at 10^-4 M after 48 hr by Alamar blue assay; details: NCI-H460, 48 h, read-out: Activity
NCI-H23 = experiment: Cytotoxicity against Homo sapiens (human) NCI-H23 cells after 48 hr by sulforhodamine B assay; details: NCI-H23, 48 h
[5] = Cytotoxicity against Homo sapiens (human) NCI-ADR-RES cells after 48 hr by sulforhodamine B assay
[6] = read-out: LC50 (the source's name)

SMILES: ClCc1ccccc1Cn1cnc2ncnc(Cl)c21
- GI50 (U-251): 1.9 µM
- LC50 (concentration killing 50% of cells) (U-251): 10.2 µM
- TGI (U-251): 4.36 µM
- GI50 (Hs-578T): 2.29 µM
- LC50 (Hs-578T): 66.1 µM
- TGI (Hs-578T): 6.02 µM
- GI50 (RPMI-8226): 2.08 µM
- TGI (RPMI-8226): 5.49 µM
- CC50 (RPMI-8226; [6]): 50.1 µM
- GI50 (M14): 1.9 µM
- LC50 (M14): 27.5 µM
- TGI (M14): 5.12 µM
- GI50 (SN12C): 2.95 µM
- LC50 (50% lethal concentration) (SN12C): 42.6 µM
- TGI (SN12C): 8.51 µM
- GI50 (T47D): 1.99 µM
- LC50 (T47D): 4.26 µM
- TGI (T47D): 4.26 µM
- GI50 (HT-29): 3.89 µM
- TGI (HT-29): > 100 µM
- CC50 (HT-29; [6]): > 100 µM
- GI50 (A498): 18.6 µM
- LC50 (lethal concentration, 50% cell kill) (A498): 57.5 µM
- TGI (A498): 33.1 µM
- GI50 (A549): 4.46 µM
- TGI (A549): 24 µM
- CC50 (A549; [6]): > 100 µM
- GI50 (PC-3): 4.46 µM
- LC50 (concentration causing 50% cell kill) (PC-3): 74.1 µM
- TGI (PC-3): 19.1 µM
- GI50 (OVCAR-4): 4.89 µM
- LC50 (concentration killing 50% of cells) (OVCAR-4): 77.6 µM
- TGI (OVCAR-4): 20.4 µM
- GI50 (NCI-H460 [1]): 13.5 µM
- TGI (NCI-H460 [1]): 60.2 µM
- CC50 (NCI-H460 [1]; [6]): > 100 µM
- GI50 (MCF7 [2]): 3.63 µM
- LC50 (concentration killing 50% of cells) (MCF7 [2]): > 100 µM
- TGI (MCF7 [2]): > 100 µM
- GI50 (SK-MEL-5): 1.38 µM
- LC50 (SK-MEL-5): 15.8 µM
- TGI (SK-MEL-5): 4.07 µM
- GI50 (UACC-257): 5.88 µM
- LC50 (concentration killing 50% of cells) (UACC-257): 61.6 µM
- TGI (UACC-257): 21.9 µM
- GI50 (UO-31): 3.23 µM
- LC50 (concentration causing 50% net cell kill) (UO-31): 77.6 µM
- TGI (UO-31): 10.7 µM
- GI50 (MDA-MB-435): 1.94 µM
- LC50 (MDA-MB-435): 7.58 µM
- TGI (MDA-MB-435): 3.8 µM
- growth at 100 µM (MCF7 [3]): 1%
- GI50 (KM12): 3.63 µM
- TGI (KM12): 11.2 µM
- CC50 (KM12; [6]): 38 µM
- GI50 (HCC 2998): 2.23 µM
- TGI (HCC 2998): 4.26 µM
- CC50 (HCC 2998; [6]): 7.94 µM
- GI50 (LOX IMVI): 1.34 µM
- LC50 (LOX IMVI): 7.07 µM
- TGI (LOX IMVI): 3.09 µM
- GI50 (HOP-92): 4.36 µM
- TGI (HOP-92): 12.9 µM
- CC50 (HOP-92; [6]): 51.3 µM
- GI50 (K562): 2.23 µM
- TGI (K562): 5.88 µM
- CC50 (K562; [6]): 83.2 µM
- GI50 (IGROV-1): 4.26 µM
- LC50 (IGROV-1): > 100 µM
- TGI (IGROV-1): 22.9 µM
- GI50 (TK-10): 3.46 µM
- TGI (TK-10): 9.54 µM
- CC50 (TK-10; [6]): 33.9 µM
- GI50 (HCT-15): 1.38 µM
- TGI (HCT-15): 2.88 µM
- CC50 (HCT-15; [6]): 6.16 µM
- GI50 (NCI-H226): 3.38 µM
- TGI (NCI-H226): 7.94 µM
- CC50 (NCI-H226; [6]): > 100 µM
- GI50 (DU-145): 2.95 µM
- LC50 (DU-145): 33.1 µM
- TGI (DU-145): 10.2 µM
- GI50 (SK-MEL-28): 4.46 µM
- LC50 (concentration killing 50% of cells) (SK-MEL-28): 79.4 µM
- TGI (SK-MEL-28): 18.6 µM
- growth at 100 µM (NCI-H460 [4]): 0%
- GI50 (NCI-H23): 5.01 µM
- TGI (NCI-H23): 17.4 µM
- CC50 (NCI-H23; [6]): 49 µM
- GI50 [5]: 2.08 µM
- LC50 (concentration killing 50% of cells) [5]: 6.54 µM
- TGI [5]: 4.46 µM
